The subject of assay [1] is HT-29. Put plainly: Effective dose required to kill 90% of HT-29 cells with BCNU (40 uM). The format is functional, Homo sapiens.
In assay [2] the test system is HT-29. In words: Effective dose required to kill 90% of HT-29 cells with BCNU (40 uM. The format is functional, cell-based. The following applies: Homo sapiens.
For assay [3], the system named is HT-29. Put plainly: Effective dose required to kill 90% HT-29 cells with BCNU (40 uM). It is filed as functional, Homo sapiens.
In assay [4] the target is T1, Methylated-DNA--protein-cysteine methyltransferase (Homo sapiens) (UniProt P16455).
T1 sequence (whole entry): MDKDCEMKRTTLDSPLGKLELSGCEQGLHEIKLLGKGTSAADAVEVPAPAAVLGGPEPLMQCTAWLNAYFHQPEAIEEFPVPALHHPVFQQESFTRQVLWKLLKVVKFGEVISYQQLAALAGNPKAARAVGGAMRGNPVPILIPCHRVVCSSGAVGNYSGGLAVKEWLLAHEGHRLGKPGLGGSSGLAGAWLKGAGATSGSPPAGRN
Description: In vitro inactivation of human O6-alkylguanine-DNA alkyltransferase in the presence of calf thymus DNA (ctDNA)

Assay [5] has as its system HT-29. Put plainly: Effective dose required to kill 90% of HT-29 cells with BCNU (40 Dulbecco''s medium. The format is functional, Homo sapiens.
Assay [6] relates to HT-29. Put plainly: Effective dose required to kill 90% of HT-29 cells with BCNU (40 uM); RPMI medium. The format is functional, Homo sapiens.
Assay [7] concerns the target T1, Methylated-DNA--protein-cysteine methyltransferase (Homo sapiens). This is another data set of the same source.
Description: In vitro inactivation of human O6-alkylguanine-DNA alkyltransferase in the absence of calf thymus DNA (ctDNA)
The test system of assay [8] is HT-29. In words: Effective dose required to kill 90% of HT-29 cells with BCNU (40 uM); folate-free RPMI medium. The format is functional, Homo sapiens.

The structures appear in SMILES notation. The source made the active and inactive calls. No cut-off for these calls is given here.

Compound `Cc1nc2nc(N)nc(OCc3ccccc3)c2nc1C` yielded an ED90 in assay [1] of 600 nM.

`Nc1nc(OCc2ccccc2)c2nc(C=O)cnc2n1` gave an ED90 in assay [1] of 700 nM. Turning to `Nc1nc(OCc2ccccc2)c2nc(C(=O)O)cnc2n1`, in assay [2], the ED90 result was “inactive”. For the compound `Nc1nc(OCc2ccccc2)c2nc(CO)cnc2n1`, the ED90 in assay [3] is 700 nM. For `Nc1nc(OCc2ccccc2)c2nc[nH]c2n1` [6-O-BENZYLGUANINE], the ED50 in assay [4] was 120 nM; in assay [7], 320 nM. In addition, the ED90 in assay [5] was 400 nM; in assay [6] it was 700 nM. For the compound `Nc1nc(OCc2ccccc2)c2nc(CNc3ccc(C(=O)N[C@@H](CCC(=O)O)C(=O)O)cc3)cnc2n1`, the ED90 amounted to 24000 nM in assay [6] and 15000 nM in assay [8]. As for `Nc1nc(OCc2ccccc2)c2nccnc2n1`, the ED90 in assay [1] came out at 200 nM.

Values taken from ChEMBL document CHEMBL1148373, “2-amino-O4-benzylpteridine derivatives: potent inactivators of O6-alkylguanine-DNA alkyltransferase” (2004).
